Publication PMC5216742, “Discovery and characterization of a novel potent type II native and mutant BCR-ABL inhibitor (CHMFL-074) for Chronic Myeloid Leukemia (CML)” (Oncotarget, 2016)

Legend:
[1] = target: T1, ABL1(Y253F)-phosphorylated (Homo sapiens, UniProt P00519, Y253F); experiment: KinomeScan profiling; type: binding; conditions: 1 µM CHMFL-074; read-out: % Control
T1 construct: purchased DiscoveRx (KinomeScan service)

P210-T315I-BaF3 = experiment: Anti-proliferation, BaF3 isogenic cell lines; type: cell-based; conditions: Mus musculus; P210-T315I-BaF3, 72 hours
Description: (§1) Retroviral constructs for fusion kinases were made based on the pMSCVpuro (Clontech) backbone. For TEL fusion vectors, the first 1 kb of human TEL gene with an artificial myristoylation sequence ([…]) was cloned into pMSCVpuro retroviral vector, followed by a 3xFLAG tag sequence and a stop codon; for BCR fusion vectors, the first 2.8 kb coding region of p210 amplified from K562 cell line was used in fusion constructs. Then the kinase domain coding sequences were inserted in-frame between TEL/BCR and 3xFLAG sequences. All mutagenesis were performed using the QuikChange Site-Directed Mutagenesis Kit (Stratagene) following the manufacturer's instructions. Retrovirus was packaged in HEK293T cells by transfecting kinase-fusion MSCV vectors together with two helper plasmids, virus supernatants were harvested 48 hours after transfection and filtered before infection. Then BaF3 cells were infected with harvested virus supernatants using spinoculation protocol and stable cell lines were obtained by puromycin selection for 48 hours. A second selection in the absence of IL-3 was performed to obtain IL-3 independent cell lines that solely depend on the introduced kinase activities for cell proliferation.
(§2) A density of 1 × 10^4 to 2.5 × 10^4 cells/mL cells were mixed with various concentrations of compounds then 100 μL suspension was added to each well and incubated for 72 hours. Cell viability was determined using the CellTiter-Glo assay (Promega, USA) or CCK-8 assay (Beboy, China). Both assays were performed according to the manufacturer instructions. For CellTiter-Glo assay, luminescence was determined in a multi-label reader (Envision, PerkinElmer, USA). […] Data were normalized to control group (DMSO). GI50 were calculated using Prism 6.0 (GraphPad Software, San Diego, CA).

P210-Q252H-BaF3 = experiment: Anti-proliferation, BaF3 isogenic cell lines; type: cell-based; conditions: Mus musculus, BaF3, 72 h
Description: as §1, §2

Tel-PDGFRβ-BaF3 = experiment: Anti-proliferation, BaF3 isogenic cell lines; type: cell-based; conditions: Mus musculus, BaF3, 72 h
Description: as §1, §2

P210-Y253F-BaF3 = experiment: Anti-proliferation, BaF3 isogenic cell lines; type: cell-based; conditions: Mus musculus, BaF3, 72 h
Description: as §1, §2

BaF3 = experiment: Anti-proliferation, BaF3 isogenic cell lines; type: cell-based; conditions: Mus musculus, BaF3, 72 h
Description: as §1, §2

TEL-DDR1-BaF3 = experiment: Anti-proliferation, BaF3 isogenic cell lines; type: cell-based; conditions: Mus musculus; TEL-DDR1-BaF3, 72 hours
Description: as §1, §2

Tel-LCK-BaF3 = experiment: Anti-proliferation, BaF3 isogenic cell lines; type: cell-based; conditions: Mus musculus; Tel-LCK-BaF3, 72 hours
Description: as §1, §2

Tel-HCK-BaF3 = experiment: Anti-proliferation, BaF3 isogenic cell lines; type: cell-based; conditions: Mus musculus, BaF3, 72 h
Description: as §1, §2

P210-H369P-BaF3 = experiment: Anti-proliferation, BaF3 isogenic cell lines; type: cell-based; conditions: Mus musculus, BaF3, 72 h
Description: as §1, §2

Tel-BLK-BaF3 = experiment: Anti-proliferation, BaF3 isogenic cell lines; type: cell-based; conditions: Mus musculus, BaF3, 72 h
Description: as §1, §2

Tel-PDGFRα-BaF3 = experiment: Anti-proliferation, BaF3 isogenic cell lines; type: cell-based; conditions: Mus musculus, BaF3, 72 h
Description: as §1, §2

BCR-DDR2-BaF3 = experiment: Anti-proliferation, BaF3 isogenic cell lines; type: cell-based; conditions: Mus musculus, BaF3, 72 h
Description: as §1, §2

Tel-RET-BaF3 = experiment: Anti-proliferation, BaF3 isogenic cell lines; type: cell-based; conditions: Mus musculus, BaF3, 72 h
Description: as §1, §2

P210-F317L-BaF3 = experiment: Anti-proliferation, BaF3 isogenic cell lines; type: cell-based; conditions: Mus musculus, BaF3, 72 h
Description: as §1, §2

## Cc1ccc(NC(=O)c2ccc(CN3CCN(C)CC3)c(C(F)(F)F)c2)cc1OC1CCN(C(=O)c2cccnc2)CC1 [CHMFL-074]
[1]
  remaining binding at 1 µM: 0.3%
P210-T315I-BaF3
  GI50: > 10000 nM
P210-Q252H-BaF3
  GI50: 118 nM
Tel-PDGFRβ-BaF3
  GI50: 52 nM
P210-Y253F-BaF3
  GI50: 338 nM
BaF3
  GI50: > 10000 nM
TEL-DDR1-BaF3
  GI50: 3520 nM
Tel-LCK-BaF3
  GI50: 2020 nM
Tel-HCK-BaF3
  GI50: > 10000 nM
P210-H369P-BaF3
  GI50: 1040 nM
Tel-BLK-BaF3
  GI50: 2860 nM
Tel-PDGFRα-BaF3
  GI50: 95 nM
BCR-DDR2-BaF3
  GI50: 2670 nM
Tel-RET-BaF3
  GI50: 630 nM
P210-F317L-BaF3
  GI50: 218 nM
